Experimental findings from patent US5863935A, “Therapeutic heterocyclic compounds” (Zeneca Limited, priority 1990, dated 1999) are described below.

For data set [1], the system named is cynomolgus monkeys. The following applies: cynomolgus monkey, in vivo, po, 50 mg/kg. On the procedure: (§1) The hydrochloride salt of the compound of Synthetic Examples 2/3 was administered orally by gavage to Wistar rats as a solution in distilled water at dosages of 25, 100 and 200 mg/kg base and to Beagle dogs at dosages of 0.25, 0.50, 1.0 and 2.0 mg/kg base once a dav for 14 days. In a separate dog study over 30 days, the dosage of the free base was increased from 2 mg/kg on Day 1 to 100 mg/kg on Day 30. The free base was also administered orally to cynomolgus monkeys at a dosage of 50 mg/kg once a day for 15 days.

In data set [2] the test system is dog. Kind of data set: 30-day escalating-dose toxicity study in dogs. The data set is classed as in vivo. The following applies: free base, 30 days, dosage increased from 2 mg/kg on Day 1 to 100 mg/kg on Day 30. On the procedure:
as §1

In data set [3] the target is "5-HT1 -like" receptor (Oryctolagus cuniculus, UniProt P49144). Briefly: Agonist activity, contraction of rabbit lateral saphenous vein rings.
Data set [4] relates to Beagle dogs. Briefly: 14-day oral toxicity in Beagle dogs. The format is in vivo, dog. The following applies: hydrochloride salt, oral gavage, Beagle dogs, 0.25, 0.50, 1.0 and 2.0 mg/kg base once a day for 14 days. On the procedure: as §1

"5-HT1 -like" receptor, sequence (P49144 whole entry): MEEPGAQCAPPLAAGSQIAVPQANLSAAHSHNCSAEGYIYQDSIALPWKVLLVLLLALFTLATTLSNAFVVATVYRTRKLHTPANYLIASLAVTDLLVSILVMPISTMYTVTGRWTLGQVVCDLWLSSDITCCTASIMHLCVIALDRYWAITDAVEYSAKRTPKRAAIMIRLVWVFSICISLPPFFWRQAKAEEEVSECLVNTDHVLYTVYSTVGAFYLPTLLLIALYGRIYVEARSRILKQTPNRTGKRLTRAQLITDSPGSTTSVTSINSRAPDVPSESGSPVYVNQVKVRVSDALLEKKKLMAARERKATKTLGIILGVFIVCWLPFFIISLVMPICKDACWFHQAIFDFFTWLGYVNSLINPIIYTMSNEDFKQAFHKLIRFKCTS

What is called EC50 is the concentration at which the effect is half-maximal. Higher therefore signals weaker potency. Turning to `CN(C)CCc1c[nH]c2ccc(C[C@H]3COC(=O)N3)cc12` [2/3, (S)-N,N-dimethyl-2-[5-(2-oxo-1,3-oxazolidin-4-ylmethyl)-1H-indol-3-yl]ethylamine 0.9 isopropanolate 0.5 hydrate], the Toxicity entry in data set [1], in data set [2] and in data set [4] was “No evidence of toxicity” each time. The same molecule showed an EC50 in data set [3] of 100 nM.
In data set [3], `CN1CCC(c2c[nH]c3ccc(CC4COC(=O)N4)cc23)CC1` (racemic) [4/5, (±)-3-(1-methyl-4-piperidyl)-5-(2-oxo-1,3-oxazolidin-4-yl-methyl)-1H-indole] gave an EC50 of 501 nM.
